Test results taken from ChEMBL document CHEMBL4196092, “Synthesis and biological evaluation of nannocystin analogues toward understanding the binding role of the (2R,3S)-Epoxide in nannocystin A” (Eur J Med Chem, 2018).
Calls of active or inactive are those of the source. The calls are words filed in the database; no cut-off is given here.

Legend:
HepG2 = test: Antiproliferative activity against human HepG2 cells; type: functional, cell-based
PANC-1 = test: Antiproliferative activity against human PANC1 cells; type: functional, cell-based
HCT-116 = test: Antiproliferative activity against human HCT116 cells; type: functional, cell-based
Homo sapiens = organism: Homo sapiens; test: Inhibition of eEF1alpha protein expression in human PANC1 cells by Western blot analysis; type: cell-based

SMILES	IC50 (HepG2)	IC50 (PANC-1)	IC50 (HCT-116)	inhibition (Homo sapiens)
CC[C@H](C)[C@H]1C(=O)N[C@H](Cc2ccc(O)c(Br)c2)C(=O)N[C@@H](C(C)C)C(=O)O[C@H](c2ccccc2)[C@H](C)/C=C/C=C(\C)[C@H](OC)C[C@@H]2O[C@@]2(C)C(=O)N1C	6.84 nM	15.7 nM	3.93 nM	Active
CC[C@H](C)[C@H]1C(=O)N[C@H](Cc2cc(Cl)c(O)c(Cl)c2)C(=O)N[C@@H](C(C)C)C(=O)O[C@H](c2ccccc2)[C@H](C)/C=C/C=C(\C)[C@H](OC)C/C=C(\C)C(=O)N1C	104 nM	137 nM	21.6 nM	Active
CC[C@H](C)[C@H]1C(=O)N[C@H](Cc2ccc(O)c(Br)c2)C(=O)N[C@@H](C(C)C)C(=O)O[C@H](c2ccccc2)[C@H](C)/C=C/C=C(\C)[C@H](OC)C/C=C(\C)C(=O)N1C	53.7 nM	55.8 nM	13.2 nM	Active
CC[C@H](C)[C@H]1C(=O)N[C@H](Cc2cc(Cl)c(O)c(Cl)c2)C(=O)N[C@@H](C(C)(C)O)C(=O)O[C@H](c2ccccc2)[C@H](C)/C=C/C=C(\C)[C@H](OC)C[C@@H]2O[C@@]2(C)C(=O)N1C	3.36 nM	12.2 nM	2.11 nM	Active
CC[C@H](C)[C@H]1C(=O)N[C@H](Cc2cc(Cl)c(O)c(Cl)c2)C(=O)N[C@@H](C(C)(C)O)C(=O)O[C@H](c2ccccc2)[C@H](C)/C=C/C=C(\C)[C@H](OC)C/C=C(\C)C(=O)N1C	2.75 nM	11.3 nM	1.6 nM	Active
CC[C@H](C)[C@H]1C(=O)N[C@H](Cc2ccc(O)c(Br)c2)C(=O)N[C@@H](C(C)(C)O)C(=O)O[C@H](c2ccccc2)[C@H](C)/C=C/C=C(\C)[C@H](OC)C[C@@H]2O[C@@]2(C)C(=O)N1C	2.98 nM	9.61 nM	1.59 nM	Active
CC[C@H](C)[C@H]1C(=O)N[C@H](Cc2cc(Cl)c(O)c(Cl)c2)C(=O)N[C@@H](C(C)(C)O)C(=O)O[C@H](c2ccccc2)[C@H](C)/C=C/C=C(\C)[C@H](OC)C[C@H]2O[C@]2(C)C(=O)N1C	> 200 nM	> 200 nM	> 200 nM	Active
CC[C@H](C)[C@H]1C(=O)N[C@H](Cc2ccc(O)c(Br)c2)C(=O)N[C@@H](C(C)(C)O)C(=O)O[C@H](c2ccccc2)[C@H](C)/C=C/C=C(\C)[C@H](OC)C[C@H]2O[C@]2(C)C(=O)N1C	> 200 nM	> 200 nM	> 200 nM	Active
CC[C@H](C)[C@H]1C(=O)N[C@H](Cc2ccc(O)c(Br)c2)C(=O)N[C@@H](C(C)(C)O)C(=O)O[C@H](c2ccccc2)[C@H](C)/C=C/C=C(\C)[C@H](OC)C/C=C(\C)C(=O)N1C	5.21 nM	11.4 nM	3.88 nM	Active
CC[C@H](C)[C@H]1C(=O)N[C@H](Cc2cc(Cl)c(O)c(Cl)c2)C(=O)N[C@@H](C(C)C)C(=O)O[C@H](c2ccccc2)[C@H](C)/C=C/C=C(\C)[C@H](OC)C[C@@H]2O[C@@]2(C)C(=O)N1C	5.65 nM	15.5 nM	4.25 nM	Active
